# From patent EP0404671A1, “Thioformamide derivatives” (RHONE-POULENC SANTE, priority 1989, dated 1990)
# Experiments:
# Thoracic aorta = experiment: Vaso-relaxant activity: relaxation of K+-induced contraction of rat thoracic aorta strips; design: species or system rats; conditions: rat thoracic aorta strips denuded of endothelium, contraction induced by 20mM K⁺, cumulative concentration; read-out: Vaso-relaxant EC₉₀
# Description: The test methods used were adapted from those described by Winslow et al [Eur. J. Pharmacol., 131, 219-228 (1986)] and Karaki [J. Pharmacol Methods, 18, 1-21, (1987)] for differentiating vaso-relaxant activity.
# Thoracic aorta was removed from rats and transverse strips, denuded of endothelium, were suspended in a bath containing Krebs solution. The tension was recorded and a contraction induced by addition of 20mM K⁺ (potassium ion) to the bathing solution. The test compound was added to the bath as a solution in increasing cumulative concentration. The concentration in the bathing solution of the test compound which reduced the K⁺-induced contraction was determined and expressed in nM as the effective concentration (EC₉₀)
# mean blood pressure = experiment: Hypotensive activity in the anaesthetised rat; format: in vivo; conditions: intravenous dose required to reduce the mean blood pressure
# Description: The intravenous dose required to reduce the mean blood pressure in an anaesthetised rat was determined and expressed in µg/kg/min as the effective concentration (EC₃₀).
# [1] = system: histamine-induced bronchospasm and blood pressure; experiment: Broncho-relaxant activity in the anaesthetised guinea pig (method of Dixon and Brodie); format: in vivo; conditions: nebulised aerosol of 200µg/ml aqueous solution for 1 minute; for Broncho-relaxant % maximum bronchospasm: histamine-induced bronchospasm
# Description: In in vivo tests in the anaesthetised guinea pig, performed according to the method of Dixon W.E. and Brodie T.G., J. Physiol 29, 97-173 (1903), the effect on histamine-induced bronchospasm and blood pressure was determined.
# A nebulised aerosol generated from an aqueous solution , having a concentration of 200µg/ml was administered for 1 minute to the anaesthetised guinea pigs.
EC90 (Thoracic aorta),Compound,Hypotensive EC₃₀ (mean blood pressure),Broncho-relaxant % maximum bronchospasm [1],Broncho-relaxant B.P. [1]
1 nM,"CNC(=S)[C@]1(c2cccnc2)CCCC/C1=N\OCc1c(F)c(F)c(F)c(F)c1F [Compound 1, (1S)-anti-N-methyl-2-(2,3,4,5,6-pentafluorobenzyloxyimino)-1-(pyrid-3-yl)cyclohexanecarbothioamide]",0.9 µg/kg/min,28%,40 mmHg
0.3 nM,"CNC(=S)[C@]1(c2cccnc2)CCCC/C1=N\OCc1ccc(F)c(F)c1 [Compound 2, (1S)-anti-N-methyl-2-(3,4-difluorobenzyloxyimino)-1-(pyrid-3-yl)cyclohexanecarbothioamide]",0.5 µg/kg/min,17%,32 mmHg
